Data as given in patent US20110008388A1, “PIGLET FEED RATIONS HAVING LOW LEVELS OF FERMENTABLE CARBOHYDRATES” (NOVUS INTERNATIONAL INC., priority 2007, published 2011).

What was measured:
[1] = test system: nursery pigs; assay: Example 4: organic trace minerals and antibiotics with GEM blend in low lactose diets, nursery pig performance (BW, ADG, ADFI, GF); format: in vivo; conditions: Phase I, 0 to 7 days post weaning; regardless of lactose level; P<0.07
Experimental: Forty-two pens of pigs with about 20-25 pigs/pen blocked by weight were used. Pig body weights were collected initially (day 0) and at the end of each phase (days 7 and 21 post weaning). Feed consumption was measured from days 0-7 (Phase I) and from days 8-21 (Phase II) post weaning. Growth rate was calculated as average daily gain (ADG), daily feed intake was calculated as average daily feed intake (ADFI) and feed efficiency was calculated as the ratio of gain:feed (GF).
Phase I was from day 0 to 7 post weaning and Phase II was from day 8 to 21 post weaning. Composition and analysis of the experimental diets used in Phase I are described in Tables 18 and 19, respectively. Composition and analysis of the experimental diets used in Phase II are described in Tables 20 and 21, respectively. Diets in treatments 1 and 6 contained the high lactose levels of 20% and 10% in Phase I and II, respectively. All other treatments had diets containing the low lactose levels of 5% and 2.5% in Phase I and II, respectively. Antibiotic, GEM blend and OTM treatments during the two phases were as follows:
Phase I (0 to 7 Days): • 1. High lactose (20%)+enteric antibiotic. • 2. Low lactose (5%)+enteric antibiotic. • 3. Low lactose (5%)+enteric antibiotic+GEM blend. • 4. Low lactose (5%)+enteric antibiotic+OTM. • 5. Low lactose (5%)+enteric antibiotic+OTM+GEM blend. • 6. […]

[2] = test system: nursery pigs; assay: Example 1: lactose level and acidifying agent in nursery pig diets, growth performance (BW, ADG, ADFI, GF); format: in vivo; conditions: for feed intake: Phase I; for average daily feed intake (ADFI): Phase II
Source text: The following study was designed to determine whether a feed supplement comprising an acidifying agent could counteract the negative effects of lower levels of lactose in nursery pigs. A two-phase feeding program, with and without an acidifying agent comprising 2-hydroxy-4-methylthiobutanoic acid, fumaric acid, and benzoic acid (i.e., as provided by ACTIVATE® DA, Novus Intl), was implemented with industry norms for energy, digestible amino acids, vitamins, and minerals. The two-phase feeding program introduced ingredients in a progressive way to gently enhance maturation of the gastrointestinal system, while at the same time supplying special ingredients that should encourage maximal growth performance. The pigs were fed a Phase I diet from weaning to 10 days post weaning, and a Phase II diet from days 11 to 21 post weaning. The levels of lactose were varied in each diet phase and each level of lactose was examined with and without the acidifying agent.
A total of approximately 840 commercial breed nursery pigs (TR-4X C22 PIC lines, PIC Intl., Franklin, Ky.) were blocked by weight and sex, and then placed into a pen containing about 20-22 pigs per pen. There were a total of 42 pens that were used for 7 replications/treatment with approximately equal numbers of pens per sex/treatment. Treatments were randomly assigned to pens within a room prior to treatment initiation. Each pen was accounted as an experimental unit. The animals were cared for according to standard site practices, which include daily observations, temperature monitoring, feeder observations, and waterer observations.
Diets were balanced to meet 60 TID Met & Cys:Lys. The ideal amino acid ratio of Thr, Tryp, Ile, and Val to Lys was maintained at a minimum of 65%, 16%, 55%, and 65%, respectively, based on the TID ideal amino acid profile for swine. Diets that included the acidifying agent used MHA (DL-methionine hydroxyl analog) to balance for the methionine source, while diets without the acidifying agent used DL-Met as a methionine source. All diets were balanced to have equivalent methionine activity and properly mixed according to the diet formulations presented in Table 1 and Table 2 for Phase I, and Table 4 and Table 5 for Phase II. Calculated analyses of the diets are presented in Tables 3 and 6 for Phase I and II, respectively.
The treatment arrangements were a 3×2 factorial arrangement with three levels of lactose with and without the acidifying agent (i.e., ACTIVATE® DA at a 0.5%). Diets were formulated to provide 5%, 10%, or 20% lactose equivalent during Phase I (0 to 10 days post weaning) and 2.5%, 5%, or 10% lactose equivalent during Phase II (11 to 21 days post weaning). The lactose equivalent was provided by […]-80® (80% lactose content; International Ingredient Corporation, St. Louis, Mo.). Fishmeal and SDPP were held constant across the diets, and corn and CWG were allowed to float to provide similar energy levels. All diets were supplemented with the enteric antibiotic carbodox (i.e., MECADOX®, Phibro Animal Health, Ridgefield Park, N.J.).
The animals were observed daily including weekends and holidays. Any abnormal observations or mortalities were recorded by pen with weight and date. The body weights of the pigs were collected initially and at the end of each phase. The feed intake was collected for each phase of growth. Feed offered was measured by weighing each amount of feed used for each pen. Feed refused was measured by weighing the amount of feed left in the feeder and any remainder that had previously been recorded as feed offered.
Data were analyzed by analysis of variance procedures appropriate for a randomized block design using the General Linear Models procedure of SAS. Differences of least squares means for treatments from control pigs were determined using a least square comparison.

Structure (SMILES)	feed intake [1] [g/day]	feed intake ([2]; high level of lactose (20%)) [g/day]	feed intake ([2]; intermediate level of lactose (10%)) [g/day]	feed intake ([2]; lowest level of lactose (5%)) [g/day]	average daily feed intake (ADFI) ([2]; highest lactose level (10%)) [g/day]	average daily feed intake (ADFI) ([2]; intermediate lactose level (5%)) [g/day]	average daily feed intake (ADFI) ([2]; lowest lactose level ([…])) [g/day]
COC(=O)N/N=C/c1c[n+]([O-])c2ccccc2[n+]1[O-] [enteric antibiotic, carbodox]	179						
OC[C@H]1O[C@@H](O[C@H]2[C@H](O)[C@@H](O)C(O)O[C@@H]2CO)[C@H](O)[C@@H](O)[C@H]1O (stereo partly shown) [lactose]		146	150	132	408	400	384
